Source: patent publication US11639372B1, “Zinc-charged peptides for the treatment of cancer and alzheimer's disease” (priority 2021, dated 2023)
Numbered stars: 1 amine (or outer) side, 2 acyl side, 3 side chain; on linkers, the order of the positions; unused ones are H or OH. Bridge positions count the residues as written; N and C are the ends. Square brackets hold non-standard residues; d marks the D form. Ends that are not written are not given here. Peptide text beside a SMILES is read from it. I, II: the chains in the order shown. Actinocin(9to1) = Cc1c2oc3c(C)ccc(C(=O)[*:1])c3nc-2c(C(=O)[*:2])c(N)c1=O; NMeV = CN[C@H](C(=O)O)C(C)C; Sar = CNCC(=O)O

Key:
HT-29 colon cancer cells = assay: apoptosis in HT-29 cells, combination with chemotherapy drugs; format: cell-based; conditions: drug 6 μg per ml 12 hours, then zinc-charged 4H 4 μM for 6 hours
Protocol: To test this, HT-29 colon cancer cells were pre-incubated with various chemotherapy drugs at 6 μg per ml for 12 hours, then zinc-charged 4H at 4 μM was added for an additional 6 hours. Most chemotherapy drugs take up to 48 hours to see substantial apoptosis, and as such, the cells were pre-incubated with chemotherapy drugs first. The chemotherapy drugs tested included actinomycin (“A”), carmustine (“C”), docorubicin (“Dox”), genistin (“G”), 5-FU, and Tarceva.

[1] = system: various cancer cell lines; assay: apoptosis-inducing activity on cancer cell lines (earlier work); format: cell-based; conditions: in vitro cell culture
Text: Cow milk is known to contain numerous proteins and other beneficial compounds for humans.
Since alpha-lactalbumin is the major milk protein present in milk, this protein was first tested to determine if the bioactive peptides were derived from alpha-Lactalbumin. Purified alpha-lactalbumin was therefore treated with EDTA and zinc acetate.

[2] = absorption by gastrointestinal tract (earlier work); format: in vivo; conditions: before enzymatic digestion with papain
[3] = water solubility of the peptides; format: physicochemical; conditions: uncharged peptide, last amino acid changed

| Compound | interaction of chemotherapy drug with the zinc-charged peptide (HT-29 colon cancer cells) | further results |
| --- | --- | --- |
| O=c1c(-c2ccc(O)cc2)coc2cc(O[C@@H]3O[C@H](CO)[C@@H](O)[C@H](O)[C@H]3O)cc(O)c12 [genistin] | synergistic |  |
| O=NN(CCCl)C(=O)NCCCl [carmustine] | synergistic |  |
| Cc1c2oc3c(C)ccc(C(=O)N[C@@H]4C(=O)N[C@H](C(C)C)C(=O)N5CCC[C@H]5C(=O)N(C)CC(=O)N(C)[C@@H](C(C)C)C(=O)O[C@@H]4C)c3nc-2c(C(=O)N[C@@H]2C(=O)N[C@H](C(C)C)C(=O)N3CCC[C@H]3C(=O)N(C)CC(=O)N(C)[C@@H](C(C)C)C(=O)O[C@@H]2C)c(N)c1=O [actinomycin] (I: T[dV]P[Sar][NMeV] / II: T[dV]P[Sar][NMeV]; ester I:1-I:C, II:1-II:C; linker I:N-II:N via Actinocin(9to1)) | synergistic |  |
| O=c1[nH]cc(F)c(=O)[nH]1 [5-FU] | synergistic |  |
| zinc-bound alpha-lactalbumin: purified alpha-lactalbumin treated with EDTA and zinc acetate |  | apoptosis-inducing activity on various cancer cell lines [1]: contain apoptosis-inducing activity; absorption by gastrointestinal tract [2]: unable to be absorbed |
| EYGLFQISNKK [4H3, E-Y-G-L-F-Q-I-S-N-K-K] |  | water solubility compared with 4H [3]: more water-soluble |
| COc1cccc2c1C(=O)c1c(O)c3c(c(O)c1C2=O)C[C@@](O)(C(=O)CO)C[C@@H]3O[C@H]1C[C@H](N)[C@H](O)[C@H](C)O1 [doxorubicin] | synergistic |  |
